Test results published in publication PMC8703873, “Structure and Activity of a Selective Antibiofilm Peptide SK-24 Derived from the NMR Structure of Human Cathelicidin LL-37” (Pharmaceuticals, 2021).
≈ marks a conversion by molar mass, not a printed value. Non-standard residues stand in square brackets, D forms with d. Residues, ends and D or L forms follow the SMILES beside them. Bip = N[C@@H](Cc1ccc(-c2ccccc2)cc1)C(=O)O

Columns and labels:
S. aureus USA300 LAC [1] = test: Membrane depolarization (DiBAC4(3)); format: cell-based, Staphylococcus aureus; settings: peptide 8 µM; similar trends at 16 and 32 µM; DiBAC4(3) fluorescence
Description: The experiment was conducted as described. In brief, an overnight culture of S. aureus USA300 LAC was subcultured in a fresh TSB medium and grown to the exponential phase. Cells were spun using centrifugation and washed twice with PBS, and resuspended in twice the volume of PBS containing 25 mM glucose and incubated at 37 °C for 15 min. For membrane depolarization measurements, 500 nM (final concentration) of the dye DiBAC4 (3) (bis-(1,3- dibutylbarbituric acid) trimethine oxonol) (AnaSpec, San Jose, CA, USA) was added and vortexed gently. Aliquots of 90 μL of the energized bacteria solution were loaded to the wells, and the plate was fed into a FLUOstar Omega microplate reader. Fluorescence was read for 20 min at excitation and emission wavelengths of 485 and 520 nm, respectively, to get dye normalization. Then 10 μL of diluted peptide solutions were added and gently mixed. Fluorescence readings were recorded for 40 min, where Triton X-100 (0.1%) was used as a positive control.

A. baumannii B28-16 [2] = format: cell-based, Acinetobacter baumannii
Description: (§1) The antibiotic-resistant pathogens used in this study include the Gram-positive bacteria Enterococcus faecium V286-17 and Staphylococcus aureus USA300 LAC and the Gram-negative bacteria Klebsiella pneumoniae E406-17, Acinetobacter baumannii B28-16, Pseudomonas aeruginosa E411-17, and Escherichia coli E423-17. All bacteria were cultivated in tryptic soy broth (TSB) at 37 °C, 220 rpm.
(§2) The antibacterial activity of peptides was evaluated using a standard broth microdilution protocol with minor modifications. In brief, peptides were made at various concentrations, 10 μL per well in a 96-well polystyrene microplate. Logarithmic phase bacterial cultures (i.e., optical density (OD) at 600 nm ≈ 0.5) were diluted to 0.001 OD, and aliquots of 90 μL were added to each well. Untreated bacterial culture and medium were included as positive and negative controls, respectively. Plates were incubated at 37 °C overnight and read at 630 nm using a ChroMate Microplate Reader (Awareness Technology, Palm City, FL, USA). […] Our previously designed peptide 17BIPHE2 [32] was included as a positive control, and RI-10, a peptide without antibacterial activity in rich media, was utilized as a negative control.

[3] = test system: S. aureus USA300 LAC preformed biofilms; settings: S. aureus USA300 LAC and other clinical strains (USA200, USA400, Mu50); cited from earlier work
Description: Here, we compared the antibiofilm activity of SK-24 with that of GF-17, GI-20, and 17BIPHE2 against the 24 h preformed biofilms of S. aureus USA300. […] Only SK-24 a ...

S. aureus USA300 LAC [4] = test: Membrane permeabilization (propidium iodide); format: cell-based, Staphylococcus aureus; settings: peptide 8 µM; propidium iodide fluorescence, 2 h, PBS, 37 °C
Description: (§3) Membrane permeabilization was evaluated as described. In brief, bacteria were inoculated and grown overnight. A second inoculation was made and let bacteria grow to the exponential phase. Bacteria were then spun, washed, and resuspended in the same volume of PBS. A series of peptide solutions (10×) was made via two-fold dilution in a 96-well plate (10 µL each). All wells were aliquoted with 2 µL of propidium iodide (20 µM), followed by adding 88 µL of S. aureus USA300 or A. baumannii B28-16 (OD600 ~0.11 in PBS). The plate was incubated at 37 °C with continuous shaking at 100 rpm in a FLUOstar Omega microplate reader (BMG Labtech Inc., Cary, NC, USA). Fluorescence was recorded every 5 min for 2 h with excitation and emission wavelengths of 485 and 620 nm. The data were analyzed by the vendor’s software using averaged values from duplicated experiments.

S. aureus USA300 = format: cell-based, Staphylococcus aureus
Description: as §1, §2

[5] = test system: S. aureus USA300 LAC preformed biofilms; test: Disruption of preformed biofilms (XTT); format: cell-based, Staphylococcus aureus
Description: The antibiofilm activities of peptides against the preformed biofilms of A. baumannii B28-16 and S. aureus USA300 LAC were evaluated as follows. Bacteria in the logarithmic growth phase were adjusted to a cell density of 10^5 colony forming unit (CFU)/mL. Two hundred microliter cells were seeded into each well of the 96-well plates. The plates were incubated at 37 °C to allow for the formation of biofilm for 24, 48, and 72 h, respectively. The planktonic cells were then removed, followed by a wash. The biofilms were then treated with 20 µL of 10× two-fold diluted peptides and 180 µL of fresh TSB media for 24 h at 37 °C. Cultures treated with water without peptide served as the positive control, and media treated with water was used as the negative control. To quantify the antibiofilm activity of the peptides, the XTT [2, 3-bis (2-methyloxy-4-nitro-5-sulfophenyl)-2H-tertazolium-5-carboxanilide] assay staining method was used to quantitate the live cells. Absorbance was read at 450 nm using a ChroMate microliter plate reader. The percentage biofilm growth for the peptide was plotted by assuming 100% biofilm growth in untreated bacterial control wells. Data were represented as mean ± standard deviation (SD). The data are statistically significant at p < 0.05. Plots were generated using GraphPad Prism v7 (GraphPad Software, San Diego, CA, USA).

Human red blood cells = test: Hemolytic assay; format: cell-based; settings: red cells of human, 1 h
Description: Human red blood cells (hRBCs, the UNMC Blood Bank) were washed three to five times with saline (Fisher Scientific, Waltham, MA, USA) at 800 g for 10 min each time, until the supernatant was clear. The supernatant was discarded, and hRBCs were suspended in saline at a final density of 2%. Ninety microliters of hRBC suspensions were added to each well of 96-well plates containing 10 µL of 10× serially diluted peptides. After incubation at 37 °C for 1 h, the plates were centrifuged at 1500 rpm for 5 min. About 80 µL of the supernatant was carefully pipetted to a new 96-well microplate and read at 545 nm to measure the amount of hemoglobin released. The positive control was 1% Triton X-100, and the negative control was saline. The percentage of hRBC lysis was calculated based on the hemoglobin released.

E. faecium V284-17 = format: cell-based, Enterococcus faecium; settings: V284-17
A. baumannii B28-16 [6] = test: Membrane permeabilization (propidium iodide); format: cell-based, Acinetobacter baumannii; settings: peptide 16 µM; propidium iodide fluorescence, 2 h, PBS, 37 °C
Description: as §3

[7] = test system: clinical and antibiotic-resistant pathogens (panel of Table 3); format: cell-based; settings: all six pathogens
Description: as §1, §2

K. pneumoniae E406-17 = format: cell-based, Klebsiella pneumoniae; settings: E406-17
Description: as §1, §2

## CC(C)C[C@H](NC(=O)[C@H](CC(N)=O)NC(=O)[C@H](CCCNC(=N)N)NC(=O)[C@@H](CC(C)C)NC(=O)[C@H](Cc1ccc(-c2ccccc2)cc1)NC(=O)[C@H](CC(=O)O)NC(=O)[C@H](CCCCN)NC(=O)[C@@H](CC(C)C)NC(=O)[C@H](CCCNC(=N)N)NC(=O)[C@H](CCC(N)=O)NC(=O)[C@@H](NC(=O)[C@@H](CC(C)C)NC(=O)[C@H](CCCNC(=N)N)NC(=O)[C@H](CCCCN)NC(=O)[C@H](Cc1ccc(-c2ccccc2)cc1)NC(=O)CN)C(C)C)C(=O)N[C@H](C(N)=O)C(C)C [Peptide 17BIPHE2] (H-G[Bip]KR[dL]VQR[dL]KD[Bip][dL]RNLV-NH2; N-terminus assumed)
S. aureus USA300 LAC [1]
  Membrane depolarization ability (order, words): GI-20 > 17BIPHE2 > GF-17~SK-24 > LL-37
A. baumannii B28-16 [2]
  MIC: 4 to 8 µM
[3]
  Disruption of 24 h preformed biofilms (words, found previously): highly effective
S. aureus USA300 LAC [4]
  Membrane permeation: more powerful
S. aureus USA300
  MIC: 4 µM (≈ 9.02 µg/mL)
[5]; 24 h preformed biofilms of S. aureus USA300, XTT
  Antibiofilm effect on 24 h preformed biofilms: antibiofilm effect in a dose-dependent manner
[5]; 24 h preformed biofilms, peptide 32 μM, relative to untreated control = 100%
  Staphylococcal biofilm remaining (reduced to): ~ 25%
Human red blood cells
  HC50 (50% hemolytic concentration): ~ 200 µM
E. faecium V284-17
  MIC: 2 µM (≈ 4.51 µg/mL)
A. baumannii B28-16 [6]
  Membrane permeation: superior to SK-24
[7]
  MIC range over the pathogens of Table 3: 2 to 8 µM
K. pneumoniae E406-17
  MIC: 4 to 8 µM
